Here are results for 5 molecules from ChEMBL document CHEMBL3259640 (J Med Chem, 2014).

In brackets after ≈: the same amount, converted by molar mass.

The test system of one data set is MDA-MB-231. The data set can be described thus: Antiproliferative activity against human MDA-MB-231 cells assessed as cell viability after 96 hrs by CellTiter96 assay. The format is functional, cell-based. Particulars: MDA-MB-231, 96 h.
A further data set deals with MDA-MB-468. The data set is described as follows: Antiproliferative activity against human MDA-MB-468 cells assessed as cell viability after 96 hrs by CellTiter96 assay. The class given is functional, cell-based. As to conditions: MDA-MB-468, 96 h.
The next data set has as its system HeLa. The data set can be described thus: Antiproliferative activity against human HeLa cells assessed as cell viability after 96 hrs by CellTiter96 assay. The class given is functional, cell-based.
In the next data set the test system is K562. The data set is described as follows: Antiproliferative activity against human K562 cells assessed as cell viability after 96 hrs by CellTiter96 assay. Particulars: K562, 96 h. The class given is functional, cell-based.
The nature of data set [1]: Solubility of the compound in phosphate buffered saline containing 1% DMSO at pH 7.4 after 2 hrs by HPLC analysis. The class given is physicochemical.

Usually IC50 stands for the concentration at which inhibition is half-maximal. Consider `Cc1cc(C)c(-c2csc(NC(=O)c3ccccc3)n2)c(C)c1`, for which the IC50 with MDA-MB-231 turned out to be 3200 nM; with MDA-MB-468 it was 2200 nM; in the data set with HeLa, 3600 nM; in the data set on K562 it was 3200 nM.
Regarding `COc1ccc(Oc2cc(C)c(-c3csc(NC(=O)c4ccncc4)n3)c(C)c2)cc1`, the IC50 in the data set with MDA-MB-231 amounted to 32 nM; with MDA-MB-468 it was 37 nM; in the data set with HeLa, 48.6 nM; in the data set with K562, 34.9 nM.
As usually defined, the solubility (kinetic) is solubility judged after dilution from a stock solution rather than from solid. The molecule `Cc1cc(C)c(-c2csc(NC(=O)c3ccncc3)n2)c(C)c1` yielded a solubility (kinetic) at 2 h in data set [1] of 3.33 µM (≈ 1.08 µg/mL).
`Cc1cc(Oc2ccc3c(c2)OCO3)cc(C)c1-c1csc(NC(=O)c2ccncc2)n1`: the IC50 in the data set with MDA-MB-231 was 68 nM; in the data set with MDA-MB-468 it was 128 nM; in the data set on HeLa, 106 nM; in the data set with K562 it was 45.7 nM.
Regarding `Cc1cc(C)c(-c2csc(NC(=O)Cc3ccncc3)n2)c(C)c1`, the IC50 came to 310 nM in the data set on MDA-MB-231, 300 nM with MDA-MB-468, 620 nM in the data set with HeLa and 380 nM in the data set on K562.
